How the values were obtained:
ABL1 (G250E) = molecular target: T1, ABL1 (G250E) (Homo sapiens, UniProt P00519, G250E); experiment: Inhibition of ABL mutants, kinase assay; assay type: biochemical; conditions: 10 μM ATP; 5-dose IC50 mode
T1 construct: purchased Reaction Biology Corporation
Protocol: (§1) Kinase assays were performed at Reaction Biology Corporation. To a freshly prepared buffer solution was added the target kinase at a concentration of […]. The contents were mixed gently, and then compound (8h) dissolved in DMSO was added to the reaction mixture in the appropriate concentration. The mixture was incubated at room temperature for 30 min. prior to addition of ATP to initiate the reaction. Compound (8h) was tested in a 5-dose IC50 mode with 10-fold serial dilutions starting at 10 μM. Staurosporine was used as a control compound in a 10-dose IC50 mode with 3-fold serial dilutions starting at 20 μM. Reaction was carried out at 10 μM ATP concentration.

ABL1 (T315I) = molecular target: T2, ABL1 (T315I) (Homo sapiens, UniProt P00519, T315I); experiment: Inhibition of ABL mutants, kinase assay; assay type: biochemical; conditions: 10 μM ATP; 5-dose IC50 mode
T2 construct: purchased Reaction Biology Corporation
Protocol: as §1

ABL1 (E255K) = molecular target: T3, ABL1 (E255K) (Homo sapiens, UniProt P00519, E255K); experiment: Inhibition of ABL mutants, kinase assay; assay type: biochemical; conditions: 10 μM ATP; 5-dose IC50 mode
T3 construct: purchased Reaction Biology Corporation
Protocol: as §1

ABL2/ARG = molecular target: T4, ABL2/ARG (Homo sapiens, UniProt P42684); experiment: Inhibition of ABL mutants, kinase assay; assay type: biochemical; conditions: 10 μM ATP; 5-dose IC50 mode
T4 construct: purchased Reaction Biology Corporation
Protocol: as §1

ABL1 (M351T) = molecular target: T5, ABL1 (M351T) (Homo sapiens, UniProt P00519, M351T); experiment: Inhibition of ABL mutants, kinase assay; assay type: biochemical; conditions: 10 μM ATP; 5-dose IC50 mode
T5 construct: purchased Reaction Biology Corporation
Protocol: as §1

ABL1 (Y253F) = molecular target: T6, ABL1 (Y253F) (Homo sapiens, UniProt P00519, Y253F); experiment: Inhibition of ABL mutants, kinase assay; assay type: biochemical; conditions: 10 μM ATP; 5-dose IC50 mode
T6 construct: purchased Reaction Biology Corporation
Protocol: as §1

ABL1 (Q252H) = molecular target: T7, ABL1 (Q252H) (Homo sapiens, UniProt P00519, Q252H); experiment: Inhibition of ABL mutants, kinase assay; assay type: biochemical; conditions: 10 μM ATP; 5-dose IC50 mode
T7 construct: purchased Reaction Biology Corporation
Protocol: as §1

K562 = experiment: Cytotoxicity on K562 cancer cell line; assay type: cell-based; conditions: Homo sapiens; K562 chronic myelogenous leukemia; 96 h; 0.01-100 μM
How it was run: (§2)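 K562 (Bcr-Abl-positive leukaemia) or DU145 prostate cells, 2.5×10^4 per well, dosed 24 h after plating with compound in DMSO at 0.01–100 μM. Assessed 96 h later by microscopic observation and, where needed, viable counts by trypan blue exclusion.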

DU145 = experiment: Cytotoxicity on DU145 cancer cell line; assay type: cell-based; conditions: Homo sapiens, DU-145; DU145 prostate cancer; 96 h; 0.01-100 μM
How it was run: as §2

RSK4 = molecular target: T8, RSK4 (Homo sapiens, UniProt Q9UK32); experiment: Kinase inhibition assay; assay type: biochemical; conditions: 10 μM ATP; 5-dose IC50 mode
T8 construct: purchased Reaction Biology Corporation
Protocol: (§3) Kinase assays were performed at Reaction Biology Corporation. To a freshly prepared buffer solution was added the target kinase at a concentration of […]. The contents were mixed gently, and then compound 8h dissolved in DMSO was added to the reaction mixture in the appropriate concentration. The mixture was incubated at room temperature for 30 min. prior to addition of ATP to initiate the reaction. Compound 8h was tested in a 5-dose IC50 mode with 10-fold serial dilutions starting at 10 μM. For each of the kinases, a control compound in a 10-dose IC50 mode with 3-fold serial dilutions starting at 20 μM. The control compounds were GW5074 (3-(3,5-dibromo-4-hydroxy-benzylidene)-5-iodo-1,3-dihydro-indol-2-one) for BRAF, CK2a and RAF1, D4476 (4-[4-(2,3-dihydro-1,4-benzodioxin-6-yl)-5-(2-pyridinyl)-1H-imidazol-2-yl]benzamide) for CK1d; Wee1 inhibitor (4-(2-chlorophenyl)-9-hydroxypyrrolo[3,4-c]carbazole-1,3-(2H,6H)-dione) for WEE1 and saturosporine for other kinases. Reaction was carried out at 10 μM ATP concentration.

RET = molecular target: T9, RET (Homo sapiens, UniProt P07949); experiment: Kinase inhibition assay; assay type: biochemical; conditions: 10 μM ATP; 5-dose IC50 mode
T9 construct: purchased Reaction Biology Corporation
T9 sequence (P07949 29-1114): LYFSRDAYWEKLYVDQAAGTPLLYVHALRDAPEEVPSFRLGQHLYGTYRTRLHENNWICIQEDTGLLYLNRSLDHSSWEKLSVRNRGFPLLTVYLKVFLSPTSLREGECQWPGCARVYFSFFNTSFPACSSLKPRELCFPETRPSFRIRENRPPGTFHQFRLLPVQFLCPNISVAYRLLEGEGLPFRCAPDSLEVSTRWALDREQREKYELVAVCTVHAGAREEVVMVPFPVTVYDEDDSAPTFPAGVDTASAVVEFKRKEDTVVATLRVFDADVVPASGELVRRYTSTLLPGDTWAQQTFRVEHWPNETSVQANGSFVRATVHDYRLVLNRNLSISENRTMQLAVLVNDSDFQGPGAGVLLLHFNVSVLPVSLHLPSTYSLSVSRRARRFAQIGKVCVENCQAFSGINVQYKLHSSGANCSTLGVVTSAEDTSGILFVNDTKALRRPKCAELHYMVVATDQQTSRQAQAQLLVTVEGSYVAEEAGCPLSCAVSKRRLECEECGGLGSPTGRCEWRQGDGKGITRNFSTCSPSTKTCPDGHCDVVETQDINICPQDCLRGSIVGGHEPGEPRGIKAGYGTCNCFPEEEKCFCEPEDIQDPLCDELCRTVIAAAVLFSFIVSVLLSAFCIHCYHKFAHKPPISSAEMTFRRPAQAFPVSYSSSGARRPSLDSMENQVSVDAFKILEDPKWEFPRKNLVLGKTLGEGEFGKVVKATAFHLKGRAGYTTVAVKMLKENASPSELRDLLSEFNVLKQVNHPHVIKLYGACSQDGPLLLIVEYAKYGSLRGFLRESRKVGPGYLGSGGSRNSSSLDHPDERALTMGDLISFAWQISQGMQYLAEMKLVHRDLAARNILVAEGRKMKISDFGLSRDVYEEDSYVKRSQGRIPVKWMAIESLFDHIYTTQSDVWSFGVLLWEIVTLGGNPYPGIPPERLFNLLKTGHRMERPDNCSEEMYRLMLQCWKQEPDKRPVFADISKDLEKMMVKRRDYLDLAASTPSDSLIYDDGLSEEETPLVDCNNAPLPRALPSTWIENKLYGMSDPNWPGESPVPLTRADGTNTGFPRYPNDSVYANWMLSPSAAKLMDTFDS
Protocol: as §3

EGFR = molecular target: T10, EGFR (Homo sapiens, UniProt P00533); experiment: Kinase inhibition assay; assay type: biochemical; conditions: 10 μM ATP; 5-dose IC50 mode
T10 construct: purchased Reaction Biology Corporation
T10 sequence (P00533 25-1210): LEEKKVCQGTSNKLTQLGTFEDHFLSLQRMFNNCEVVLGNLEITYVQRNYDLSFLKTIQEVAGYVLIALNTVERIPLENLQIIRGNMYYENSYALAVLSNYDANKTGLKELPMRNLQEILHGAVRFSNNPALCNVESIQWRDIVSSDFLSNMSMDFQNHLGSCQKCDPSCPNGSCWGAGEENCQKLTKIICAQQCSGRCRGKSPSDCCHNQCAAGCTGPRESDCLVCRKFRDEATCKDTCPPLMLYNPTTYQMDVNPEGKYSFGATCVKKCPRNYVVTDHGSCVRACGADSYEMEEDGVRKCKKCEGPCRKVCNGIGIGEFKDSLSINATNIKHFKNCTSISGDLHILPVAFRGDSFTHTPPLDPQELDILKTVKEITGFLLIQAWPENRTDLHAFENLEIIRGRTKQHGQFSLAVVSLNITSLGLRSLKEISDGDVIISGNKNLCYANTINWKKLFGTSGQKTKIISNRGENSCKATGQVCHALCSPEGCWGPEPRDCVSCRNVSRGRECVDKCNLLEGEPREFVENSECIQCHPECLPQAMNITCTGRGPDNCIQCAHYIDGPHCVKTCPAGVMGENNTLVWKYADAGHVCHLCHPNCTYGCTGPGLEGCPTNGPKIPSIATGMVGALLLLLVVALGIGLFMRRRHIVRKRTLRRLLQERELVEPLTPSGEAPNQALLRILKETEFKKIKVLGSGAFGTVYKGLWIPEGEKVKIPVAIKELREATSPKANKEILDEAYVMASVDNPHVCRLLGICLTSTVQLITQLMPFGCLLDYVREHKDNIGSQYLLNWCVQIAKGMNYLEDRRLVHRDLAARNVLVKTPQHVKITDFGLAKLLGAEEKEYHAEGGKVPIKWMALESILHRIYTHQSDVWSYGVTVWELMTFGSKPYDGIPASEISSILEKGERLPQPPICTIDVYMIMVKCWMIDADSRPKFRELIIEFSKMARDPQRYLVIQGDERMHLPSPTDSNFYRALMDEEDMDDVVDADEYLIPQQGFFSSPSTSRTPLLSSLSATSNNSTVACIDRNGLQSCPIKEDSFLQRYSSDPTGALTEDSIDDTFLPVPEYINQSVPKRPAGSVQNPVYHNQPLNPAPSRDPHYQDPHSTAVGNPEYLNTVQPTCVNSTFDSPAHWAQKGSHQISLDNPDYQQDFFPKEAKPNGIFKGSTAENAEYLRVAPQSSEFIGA
Protocol: as §3

CK2a2 = molecular target: T11, CK2a2 (Homo sapiens, UniProt P19784); experiment: Kinase inhibition assay; assay type: biochemical; conditions: 10 μM ATP; 5-dose IC50 mode
T11 construct: purchased Reaction Biology Corporation
Protocol: as §3

c-Src = molecular target: T12, c-Src (Homo sapiens, UniProt P12931); experiment: Kinase inhibition assay; assay type: biochemical; conditions: 10 μM ATP; 5-dose IC50 mode
T12 construct: purchased Reaction Biology Corporation
T12 sequence (P12931 whole entry): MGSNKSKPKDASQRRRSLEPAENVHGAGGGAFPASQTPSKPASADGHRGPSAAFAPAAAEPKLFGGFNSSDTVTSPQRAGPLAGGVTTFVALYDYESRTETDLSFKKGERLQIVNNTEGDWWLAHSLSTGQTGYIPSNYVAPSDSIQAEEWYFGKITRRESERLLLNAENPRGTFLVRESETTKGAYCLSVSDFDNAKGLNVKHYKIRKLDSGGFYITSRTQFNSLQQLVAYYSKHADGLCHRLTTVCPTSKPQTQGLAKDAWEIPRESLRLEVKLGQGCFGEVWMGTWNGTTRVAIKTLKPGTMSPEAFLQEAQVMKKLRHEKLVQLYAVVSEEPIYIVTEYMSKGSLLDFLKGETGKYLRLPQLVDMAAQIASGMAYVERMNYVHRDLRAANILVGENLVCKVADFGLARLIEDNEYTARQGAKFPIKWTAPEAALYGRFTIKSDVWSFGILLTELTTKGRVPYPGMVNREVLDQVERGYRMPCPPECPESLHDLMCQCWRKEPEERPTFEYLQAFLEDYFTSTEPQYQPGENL
Protocol: as §3

PIM3 = molecular target: T13, PIM3 (Homo sapiens, UniProt Q86V86); experiment: Kinase inhibition assay; assay type: biochemical; conditions: 10 μM ATP; 5-dose IC50 mode
T13 construct: purchased Reaction Biology Corporation
Protocol: as §3

CHK1 = molecular target: T14, CHK1 (Homo sapiens, UniProt O14757); experiment: Kinase inhibition assay; assay type: biochemical; conditions: 10 μM ATP; 5-dose IC50 mode
T14 construct: purchased Reaction Biology Corporation
Protocol: as §3

PDGFRb = molecular target: T15, PDGFRb (Homo sapiens, UniProt P09619); experiment: Kinase inhibition assay; assay type: biochemical; conditions: 10 μM ATP; 5-dose IC50 mode
T15 construct: purchased Reaction Biology Corporation
Protocol: as §3

CDK4/cyclin D1 = molecular target: T16, CDK4/cyclin D1 (Homo sapiens, UniProt P11802); experiment: Kinase inhibition assay; assay type: biochemical; conditions: 10 μM ATP; 5-dose IC50 mode
T16 construct: purchased Reaction Biology Corporation
Protocol: as §3

ALK = molecular target: T17, ALK (Homo sapiens, UniProt Q9UM73); experiment: Kinase inhibition assay; assay type: biochemical; conditions: 10 μM ATP; 5-dose IC50 mode
T17 construct: purchased Reaction Biology Corporation
Protocol: as §3

CDK5/p25 = molecular target: T18, CDK5/p25 (Homo sapiens, UniProt Q00535); experiment: Kinase inhibition assay; assay type: biochemical; conditions: 10 μM ATP; 5-dose IC50 mode
T18 construct: purchased Reaction Biology Corporation
Protocol: as §3

FGFR1 = molecular target: T19, FGFR1 (Homo sapiens, UniProt P11362); experiment: Kinase inhibition assay; assay type: biochemical; conditions: 10 μM ATP; 5-dose IC50 mode
T19 construct: purchased Reaction Biology Corporation
T19 sequence (P11362 22-822): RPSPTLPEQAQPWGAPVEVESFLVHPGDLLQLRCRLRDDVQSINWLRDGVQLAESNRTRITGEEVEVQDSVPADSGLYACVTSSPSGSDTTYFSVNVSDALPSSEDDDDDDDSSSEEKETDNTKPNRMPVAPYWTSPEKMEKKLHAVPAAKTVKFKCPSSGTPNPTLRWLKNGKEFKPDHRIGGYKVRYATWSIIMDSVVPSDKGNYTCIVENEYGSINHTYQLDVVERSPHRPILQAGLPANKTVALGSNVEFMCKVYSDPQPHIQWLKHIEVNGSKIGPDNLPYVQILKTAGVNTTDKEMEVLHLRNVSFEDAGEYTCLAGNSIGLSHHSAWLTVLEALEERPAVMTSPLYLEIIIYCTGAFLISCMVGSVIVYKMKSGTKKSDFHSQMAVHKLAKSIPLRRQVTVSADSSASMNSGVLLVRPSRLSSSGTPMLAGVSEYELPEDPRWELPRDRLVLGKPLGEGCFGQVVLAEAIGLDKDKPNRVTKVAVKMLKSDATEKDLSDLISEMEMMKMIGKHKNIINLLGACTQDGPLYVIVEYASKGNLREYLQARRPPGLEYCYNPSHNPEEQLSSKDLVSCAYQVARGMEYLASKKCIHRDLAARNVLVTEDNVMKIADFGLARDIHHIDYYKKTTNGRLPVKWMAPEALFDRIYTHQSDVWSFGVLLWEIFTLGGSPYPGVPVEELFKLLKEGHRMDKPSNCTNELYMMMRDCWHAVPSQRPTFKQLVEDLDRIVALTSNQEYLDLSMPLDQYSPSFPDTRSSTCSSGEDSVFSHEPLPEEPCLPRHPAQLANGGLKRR
Protocol: as §3

Aurora C = molecular target: T20, Aurora C (Homo sapiens, UniProt Q9UQB9); experiment: Kinase inhibition assay; assay type: biochemical; conditions: 10 μM ATP; 5-dose IC50 mode
T20 construct: purchased Reaction Biology Corporation
Protocol: as §3

MEK2 = molecular target: T21, MEK2 (Homo sapiens, UniProt P36507); experiment: Kinase inhibition assay; assay type: biochemical; conditions: 10 μM ATP; 5-dose IC50 mode
T21 construct: purchased Reaction Biology Corporation
Protocol: as §3

CDK5/p35 = molecular target: T22, CDK5/p35 (Homo sapiens, UniProt Q00535); experiment: Kinase inhibition assay; assay type: biochemical; conditions: 10 μM ATP; 5-dose IC50 mode
T22 construct: purchased Reaction Biology Corporation
Protocol: as §3

JAK2 = molecular target: T23, JAK2 (Homo sapiens, UniProt O60674); experiment: Kinase inhibition assay; assay type: biochemical; conditions: 10 μM ATP; 5-dose IC50 mode
T23 construct: purchased Reaction Biology Corporation
Protocol: as §3

Aurora A = molecular target: T24, Aurora A (Homo sapiens, UniProt O14965); experiment: Kinase inhibition assay; assay type: biochemical; conditions: 10 μM ATP; 5-dose IC50 mode
T24 construct: purchased Reaction Biology Corporation
Protocol: as §3

c-Kit = molecular target: T25, c-Kit (Homo sapiens, UniProt P10721); experiment: Kinase inhibition assay; assay type: biochemical; conditions: 10 μM ATP; 5-dose IC50 mode
T25 construct: purchased Reaction Biology Corporation
T25 sequence (P10721 26-976): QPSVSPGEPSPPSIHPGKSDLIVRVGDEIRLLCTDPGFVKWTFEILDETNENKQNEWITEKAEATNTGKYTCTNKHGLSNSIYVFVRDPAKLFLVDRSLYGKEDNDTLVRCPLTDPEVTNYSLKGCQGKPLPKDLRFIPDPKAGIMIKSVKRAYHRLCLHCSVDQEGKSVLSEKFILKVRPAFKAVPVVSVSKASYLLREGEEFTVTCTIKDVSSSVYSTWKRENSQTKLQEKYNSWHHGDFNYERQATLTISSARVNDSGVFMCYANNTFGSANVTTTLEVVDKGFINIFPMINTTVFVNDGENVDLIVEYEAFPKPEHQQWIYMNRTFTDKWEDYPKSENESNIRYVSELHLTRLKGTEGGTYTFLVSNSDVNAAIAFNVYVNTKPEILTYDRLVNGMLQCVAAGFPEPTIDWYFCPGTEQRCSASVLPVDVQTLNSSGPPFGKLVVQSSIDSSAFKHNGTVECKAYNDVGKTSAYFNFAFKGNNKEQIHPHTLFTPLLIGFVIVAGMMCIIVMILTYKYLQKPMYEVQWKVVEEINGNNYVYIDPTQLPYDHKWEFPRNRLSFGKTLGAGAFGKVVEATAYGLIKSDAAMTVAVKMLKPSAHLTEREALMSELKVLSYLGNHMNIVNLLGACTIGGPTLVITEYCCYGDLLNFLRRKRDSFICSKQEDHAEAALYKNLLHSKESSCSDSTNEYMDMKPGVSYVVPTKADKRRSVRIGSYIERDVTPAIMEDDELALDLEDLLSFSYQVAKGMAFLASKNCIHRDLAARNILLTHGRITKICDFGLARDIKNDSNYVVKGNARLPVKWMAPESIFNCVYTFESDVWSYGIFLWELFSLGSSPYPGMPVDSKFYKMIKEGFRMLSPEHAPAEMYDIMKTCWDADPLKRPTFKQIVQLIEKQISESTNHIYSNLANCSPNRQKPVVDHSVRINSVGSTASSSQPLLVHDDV
Protocol: as §3

MEK1 = molecular target: T26, MEK1 (Homo sapiens, UniProt Q02750); experiment: Kinase inhibition assay; assay type: biochemical; conditions: 10 μM ATP; 5-dose IC50 mode
T26 construct: purchased Reaction Biology Corporation
Protocol: as §3

With `CN1CCN(c2ccc(Nc3ncc(/C=C/C#N)c(NC4CCCC4)n3)cc2)CC1` [Compound 8h, 3-{4-Cyclopentylamino-2-[4-(4-methylpiperazin-1-yl)phenylamino]pyrimidin-5-yl}acrylonitrile] the IC50 (ABL1 (G250E)) was < 100 nM, the IC50 (ABL1 (T315I)) was < 100 nM and the IC50 (ABL1 (E255K)) was < 100 nM. For the same compound, the IC50 (ABL2/ARG) was < 100 nM, the IC50 (ABL1 (M351T)) was < 100 nM and the IC50 (ABL1 (Y253F)) was < 100 nM. The IC50 (ABL1 (Q252H)) was < 100 nM, the IC50 (K562) was < 1000 nM and the IC50 (DU145) was < 1000 nM. For the same compound, the IC50 (RSK4) was < 100 nM, the IC50 (RET) was < 100 nM and the IC50 (EGFR) was 100 to 1000 nM. The IC50 (CK2a2) was 100 to 1000 nM, the IC50 (c-Src) was < 100 nM and the IC50 (PIM3) was > 1000 nM. The IC50 (CHK1) was 100 to 1000 nM, the IC50 (PDGFRb) was < 100 nM and the IC50 (CDK4/cyclin D1) was 100 to 1000 nM. The IC50 (ALK) was < 100 nM, the IC50 (CDK5/p25) was > 10000 nM and the IC50 (FGFR1) was < 100 nM. For the same compound, the IC50 (Aurora C) was > 1000 nM, the IC50 (MEK2) was > 1000 nM and the IC50 (CDK5/p35) was > 10000 nM. The IC50 (JAK2) was 100 to 1000 nM, the IC50 (Aurora A) was 100 to 1000 nM and the IC50 (c-Kit) was 100 to 1000 nM. The IC50 (MEK1) was > 1000 nM.

Source: patent US9815847B2 (Icahn School of Medicine at Mount Sinai, priority 2013, dated 2017)
